In patent publication US7759331B2, “Pyridine-containing macroheterococylic compounds as kinase inhibitors” (Janssen Pharmaceutica NV, priority 2006, dated 2010):

What was measured:
Assay in all cases: Protein kinase selectivity panel
Conditions in all cases: 1.0 μM compound, 10 μM ATP
[1] = tested on: AMPK(r); assay type: biochemical, rat
Protocol: (§1) Protein kinase selectivity assays were performed as described in the scientific literature (Davies, S. P., et al., Biochem. J. 2000, 351, 95-105). Briefly, protein kinases were assayed for their ability to phosphorylate the appropriate peptide/protein substrates in the presence of 1.0 μM compound. Assays were done using 10 μM ATP and were linear with respect to time. The protein kinase selectivity assays were performed by Upstate Cell Signaling Solutions using Upstate's KinaseProfiler™ Selectivity Screening Service.

[2] = tested on: CaMKII(r); assay type: biochemical, rat
Protocol: as §1

[3] = tested on: CK1(y); assay type: biochemical, yeast
Protocol: as §1

[4] = tested on: p70S6K(h); assay type: biochemical, human
Protocol: as §1

[5] = molecular target: Arg(m) (Mus musculus, UniProt Q4JIM5); assay type: biochemical
Protocol: as §1

[6] = molecular target: CDK2/cyclinA(h) (Homo sapiens, UniProt P24941); assay type: biochemical
Protocol: as §1

[7] = molecular target: CDK5/p35(h) (Homo sapiens, UniProt Q00535); assay type: biochemical
Chain of CDK5/p35(h) (Q00535 whole entry): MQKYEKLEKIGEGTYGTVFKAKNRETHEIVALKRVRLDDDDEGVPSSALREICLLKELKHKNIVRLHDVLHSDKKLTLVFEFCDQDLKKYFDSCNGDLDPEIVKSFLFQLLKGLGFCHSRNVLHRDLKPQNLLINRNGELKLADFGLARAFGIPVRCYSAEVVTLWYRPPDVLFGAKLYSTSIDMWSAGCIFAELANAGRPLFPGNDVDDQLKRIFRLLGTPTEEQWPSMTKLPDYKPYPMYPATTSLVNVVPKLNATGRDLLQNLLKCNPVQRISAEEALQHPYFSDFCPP
Chain of CDK5/p35(h) (Q15078 whole entry partner): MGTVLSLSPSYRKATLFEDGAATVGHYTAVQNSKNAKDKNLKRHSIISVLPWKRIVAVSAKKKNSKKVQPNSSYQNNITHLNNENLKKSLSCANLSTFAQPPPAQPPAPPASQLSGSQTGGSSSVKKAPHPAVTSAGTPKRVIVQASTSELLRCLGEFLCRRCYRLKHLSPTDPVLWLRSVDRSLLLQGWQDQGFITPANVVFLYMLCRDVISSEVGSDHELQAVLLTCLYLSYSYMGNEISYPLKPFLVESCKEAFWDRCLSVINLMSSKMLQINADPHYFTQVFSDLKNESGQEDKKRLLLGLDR
Protocol: as §1

[8] = molecular target: T1, CHK1(h) (Homo sapiens, UniProt O14757); assay type: biochemical
T1 sequence (O14757 1-476): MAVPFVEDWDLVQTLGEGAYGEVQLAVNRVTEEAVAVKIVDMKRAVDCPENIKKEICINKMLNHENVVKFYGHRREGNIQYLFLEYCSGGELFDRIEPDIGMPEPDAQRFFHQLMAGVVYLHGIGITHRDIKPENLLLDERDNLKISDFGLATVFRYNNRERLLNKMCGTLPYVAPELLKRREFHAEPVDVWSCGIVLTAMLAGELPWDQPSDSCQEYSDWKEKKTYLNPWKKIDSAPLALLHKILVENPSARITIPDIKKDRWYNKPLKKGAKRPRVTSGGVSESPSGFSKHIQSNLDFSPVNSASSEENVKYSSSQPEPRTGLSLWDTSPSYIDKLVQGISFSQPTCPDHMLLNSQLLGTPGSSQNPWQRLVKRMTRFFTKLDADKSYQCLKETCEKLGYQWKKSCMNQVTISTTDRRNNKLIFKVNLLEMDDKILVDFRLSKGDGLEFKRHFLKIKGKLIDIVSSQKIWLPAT
Protocol: as §1

[9] = molecular target: CK1δ(h) (Homo sapiens, UniProt P48730); assay type: biochemical
Chain of CK1δ(h) (P48730 whole entry): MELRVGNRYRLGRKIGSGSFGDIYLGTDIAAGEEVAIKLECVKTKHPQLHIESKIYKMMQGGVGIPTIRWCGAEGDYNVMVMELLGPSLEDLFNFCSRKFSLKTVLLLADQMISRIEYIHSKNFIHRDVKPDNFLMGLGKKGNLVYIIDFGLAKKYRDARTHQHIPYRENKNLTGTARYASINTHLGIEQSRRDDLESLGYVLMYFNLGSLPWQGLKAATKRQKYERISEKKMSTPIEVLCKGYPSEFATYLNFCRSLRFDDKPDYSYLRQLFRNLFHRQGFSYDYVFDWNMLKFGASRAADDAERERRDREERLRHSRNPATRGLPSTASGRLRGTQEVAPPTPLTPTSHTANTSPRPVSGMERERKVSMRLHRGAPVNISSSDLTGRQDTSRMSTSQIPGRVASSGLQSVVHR
Protocol: as §1

[10] = molecular target: CK2(h) (Homo sapiens, UniProt P68400); assay type: biochemical
Protocol: as §1

[11] = molecular target: CSK(h) (Homo sapiens, UniProt P41240); assay type: biochemical
Protocol: as §1

[12] = molecular target: Fes(h) (Homo sapiens, UniProt P07332); assay type: biochemical
Chain of Fes(h) (P07332 whole entry): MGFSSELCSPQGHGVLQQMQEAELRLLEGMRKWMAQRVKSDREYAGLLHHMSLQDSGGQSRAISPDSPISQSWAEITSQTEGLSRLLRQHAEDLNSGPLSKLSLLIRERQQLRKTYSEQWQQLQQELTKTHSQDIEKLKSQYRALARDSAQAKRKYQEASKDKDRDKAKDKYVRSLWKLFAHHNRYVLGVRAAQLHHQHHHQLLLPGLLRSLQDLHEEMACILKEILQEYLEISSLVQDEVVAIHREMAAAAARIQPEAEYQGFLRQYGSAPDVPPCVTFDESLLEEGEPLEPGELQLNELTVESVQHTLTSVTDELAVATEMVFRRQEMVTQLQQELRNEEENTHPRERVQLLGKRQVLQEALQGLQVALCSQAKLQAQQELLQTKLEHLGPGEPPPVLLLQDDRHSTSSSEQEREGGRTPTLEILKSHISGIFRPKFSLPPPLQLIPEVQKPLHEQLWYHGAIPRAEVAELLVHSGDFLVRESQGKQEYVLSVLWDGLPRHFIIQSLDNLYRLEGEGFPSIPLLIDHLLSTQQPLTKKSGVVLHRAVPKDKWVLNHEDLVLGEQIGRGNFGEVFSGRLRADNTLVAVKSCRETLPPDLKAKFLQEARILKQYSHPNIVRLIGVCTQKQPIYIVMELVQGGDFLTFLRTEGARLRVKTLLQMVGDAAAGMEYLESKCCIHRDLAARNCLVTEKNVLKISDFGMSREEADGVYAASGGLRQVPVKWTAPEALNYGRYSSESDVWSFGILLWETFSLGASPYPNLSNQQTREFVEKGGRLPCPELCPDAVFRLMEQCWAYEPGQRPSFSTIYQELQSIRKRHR
Protocol: as §1

[13] = molecular target: T2, IKKβ(h) (Homo sapiens, UniProt O14920); assay type: biochemical
T2 sequence (O14920 1-756): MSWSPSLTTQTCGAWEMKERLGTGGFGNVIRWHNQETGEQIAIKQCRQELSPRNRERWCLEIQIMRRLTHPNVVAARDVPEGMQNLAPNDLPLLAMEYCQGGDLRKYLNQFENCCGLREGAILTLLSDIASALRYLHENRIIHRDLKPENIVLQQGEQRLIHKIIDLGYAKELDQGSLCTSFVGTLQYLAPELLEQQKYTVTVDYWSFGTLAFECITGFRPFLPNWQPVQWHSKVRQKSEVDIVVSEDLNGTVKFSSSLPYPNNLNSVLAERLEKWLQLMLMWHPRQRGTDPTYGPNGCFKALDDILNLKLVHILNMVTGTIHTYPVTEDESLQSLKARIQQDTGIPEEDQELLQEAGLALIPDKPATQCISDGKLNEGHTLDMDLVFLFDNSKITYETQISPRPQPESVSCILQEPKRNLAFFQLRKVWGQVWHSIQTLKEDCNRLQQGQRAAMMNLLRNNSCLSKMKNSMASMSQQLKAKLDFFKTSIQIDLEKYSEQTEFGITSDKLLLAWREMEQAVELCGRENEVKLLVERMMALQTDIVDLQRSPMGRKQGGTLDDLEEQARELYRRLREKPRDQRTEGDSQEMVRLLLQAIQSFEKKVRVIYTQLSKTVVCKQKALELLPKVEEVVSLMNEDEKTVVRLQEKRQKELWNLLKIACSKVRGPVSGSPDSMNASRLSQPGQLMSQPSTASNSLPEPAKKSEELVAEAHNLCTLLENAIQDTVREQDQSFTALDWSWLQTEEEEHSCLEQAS
Protocol: as §1

[14] = molecular target: MAPK2(m) (Mus musculus, UniProt P63085); assay type: biochemical
Protocol: as §1

[15] = molecular target: T3, PRAK(h) (Homo sapiens, UniProt Q8IW41); assay type: biochemical
T3 sequence (Q8IW41 1-473): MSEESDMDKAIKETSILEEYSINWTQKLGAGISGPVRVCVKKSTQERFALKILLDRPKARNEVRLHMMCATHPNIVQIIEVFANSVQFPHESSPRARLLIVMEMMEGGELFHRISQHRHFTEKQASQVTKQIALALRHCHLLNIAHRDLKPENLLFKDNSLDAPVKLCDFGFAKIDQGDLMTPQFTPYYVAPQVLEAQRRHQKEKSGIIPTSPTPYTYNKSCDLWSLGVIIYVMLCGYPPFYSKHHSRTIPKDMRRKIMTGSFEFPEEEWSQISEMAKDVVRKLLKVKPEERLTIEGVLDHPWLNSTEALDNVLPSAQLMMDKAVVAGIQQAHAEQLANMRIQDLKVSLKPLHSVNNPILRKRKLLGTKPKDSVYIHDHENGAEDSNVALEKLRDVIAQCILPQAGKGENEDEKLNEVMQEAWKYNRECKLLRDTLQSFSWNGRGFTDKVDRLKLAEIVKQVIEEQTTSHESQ
Protocol: as §1

[16] = molecular target: ROCK-II(h) (Homo sapiens, UniProt O75116); assay type: biochemical
Chain of ROCK-II(h) (O75116 whole entry): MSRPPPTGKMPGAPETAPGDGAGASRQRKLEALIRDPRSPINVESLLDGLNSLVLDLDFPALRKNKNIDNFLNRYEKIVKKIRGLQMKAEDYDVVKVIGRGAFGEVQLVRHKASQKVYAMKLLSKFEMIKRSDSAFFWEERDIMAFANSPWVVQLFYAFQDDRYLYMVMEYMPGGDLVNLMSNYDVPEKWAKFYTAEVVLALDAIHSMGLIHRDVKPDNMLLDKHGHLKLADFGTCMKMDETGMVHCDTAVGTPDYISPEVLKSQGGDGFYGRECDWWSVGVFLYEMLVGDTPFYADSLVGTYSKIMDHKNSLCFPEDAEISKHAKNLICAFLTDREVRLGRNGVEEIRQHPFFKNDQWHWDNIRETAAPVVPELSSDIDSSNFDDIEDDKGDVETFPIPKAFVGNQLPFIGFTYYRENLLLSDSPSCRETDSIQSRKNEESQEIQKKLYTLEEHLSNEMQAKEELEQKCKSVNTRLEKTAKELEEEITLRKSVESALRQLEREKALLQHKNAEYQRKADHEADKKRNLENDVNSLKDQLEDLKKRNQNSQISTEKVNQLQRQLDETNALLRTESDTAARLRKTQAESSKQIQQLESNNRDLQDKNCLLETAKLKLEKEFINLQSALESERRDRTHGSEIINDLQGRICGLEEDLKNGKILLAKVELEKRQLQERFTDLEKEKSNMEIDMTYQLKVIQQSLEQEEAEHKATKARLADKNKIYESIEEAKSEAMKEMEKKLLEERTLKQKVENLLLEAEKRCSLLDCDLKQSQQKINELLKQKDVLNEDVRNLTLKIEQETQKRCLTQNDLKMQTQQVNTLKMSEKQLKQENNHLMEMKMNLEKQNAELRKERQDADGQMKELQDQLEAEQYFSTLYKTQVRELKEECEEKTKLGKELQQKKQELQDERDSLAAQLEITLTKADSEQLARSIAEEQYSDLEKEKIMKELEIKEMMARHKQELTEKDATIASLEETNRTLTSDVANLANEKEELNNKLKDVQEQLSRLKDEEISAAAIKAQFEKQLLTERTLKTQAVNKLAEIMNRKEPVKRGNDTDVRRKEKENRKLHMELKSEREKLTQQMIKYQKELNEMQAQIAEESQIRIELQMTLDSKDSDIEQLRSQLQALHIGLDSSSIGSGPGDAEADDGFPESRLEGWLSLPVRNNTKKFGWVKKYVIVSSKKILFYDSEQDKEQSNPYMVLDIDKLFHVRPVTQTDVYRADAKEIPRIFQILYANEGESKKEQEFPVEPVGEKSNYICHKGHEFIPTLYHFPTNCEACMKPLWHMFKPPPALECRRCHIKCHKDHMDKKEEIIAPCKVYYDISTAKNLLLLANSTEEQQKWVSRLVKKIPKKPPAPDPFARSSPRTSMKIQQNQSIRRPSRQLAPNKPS
Protocol: as §1

[17] = molecular target: Rsk1(r) (Rattus norvegicus, UniProt Q63531); assay type: biochemical
Chain of Rsk1(r) (Q63531 whole entry): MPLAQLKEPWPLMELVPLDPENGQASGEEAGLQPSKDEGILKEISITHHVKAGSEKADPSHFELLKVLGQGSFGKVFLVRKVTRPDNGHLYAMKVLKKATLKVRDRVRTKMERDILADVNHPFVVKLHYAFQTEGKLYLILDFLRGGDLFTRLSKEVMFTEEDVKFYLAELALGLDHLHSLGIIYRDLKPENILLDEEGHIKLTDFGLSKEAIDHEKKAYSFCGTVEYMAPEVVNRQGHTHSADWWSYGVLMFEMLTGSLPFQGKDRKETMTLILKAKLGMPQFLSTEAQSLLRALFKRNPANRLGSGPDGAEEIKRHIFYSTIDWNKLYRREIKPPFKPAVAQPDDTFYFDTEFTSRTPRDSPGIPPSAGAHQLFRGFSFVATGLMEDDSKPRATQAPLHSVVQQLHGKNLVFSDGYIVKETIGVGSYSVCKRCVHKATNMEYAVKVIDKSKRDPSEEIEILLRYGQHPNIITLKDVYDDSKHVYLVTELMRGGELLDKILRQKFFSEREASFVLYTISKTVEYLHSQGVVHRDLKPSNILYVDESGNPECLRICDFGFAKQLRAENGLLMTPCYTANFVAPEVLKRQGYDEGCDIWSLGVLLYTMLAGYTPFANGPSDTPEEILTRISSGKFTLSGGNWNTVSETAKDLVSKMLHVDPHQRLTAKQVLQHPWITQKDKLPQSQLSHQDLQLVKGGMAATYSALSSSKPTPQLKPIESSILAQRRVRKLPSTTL
Protocol: as §1

[18] = molecular target: SAPK2a(h) (Homo sapiens, UniProt Q16539); assay type: biochemical
Chain of SAPK2a(h) (Q16539 whole entry): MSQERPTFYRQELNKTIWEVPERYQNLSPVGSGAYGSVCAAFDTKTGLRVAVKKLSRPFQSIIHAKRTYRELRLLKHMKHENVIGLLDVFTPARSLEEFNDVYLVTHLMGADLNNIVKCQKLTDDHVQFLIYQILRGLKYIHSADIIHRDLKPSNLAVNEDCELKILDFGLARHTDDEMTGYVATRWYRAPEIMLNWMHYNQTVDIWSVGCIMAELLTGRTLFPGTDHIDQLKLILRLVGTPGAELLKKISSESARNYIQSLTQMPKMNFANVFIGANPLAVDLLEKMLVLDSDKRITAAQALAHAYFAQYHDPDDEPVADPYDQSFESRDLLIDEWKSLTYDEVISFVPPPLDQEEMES
Protocol: as §1

[19] = molecular target: c-RAF(h) (Homo sapiens, UniProt P04049); assay type: biochemical
Chain of c-RAF(h) (P04049 whole entry): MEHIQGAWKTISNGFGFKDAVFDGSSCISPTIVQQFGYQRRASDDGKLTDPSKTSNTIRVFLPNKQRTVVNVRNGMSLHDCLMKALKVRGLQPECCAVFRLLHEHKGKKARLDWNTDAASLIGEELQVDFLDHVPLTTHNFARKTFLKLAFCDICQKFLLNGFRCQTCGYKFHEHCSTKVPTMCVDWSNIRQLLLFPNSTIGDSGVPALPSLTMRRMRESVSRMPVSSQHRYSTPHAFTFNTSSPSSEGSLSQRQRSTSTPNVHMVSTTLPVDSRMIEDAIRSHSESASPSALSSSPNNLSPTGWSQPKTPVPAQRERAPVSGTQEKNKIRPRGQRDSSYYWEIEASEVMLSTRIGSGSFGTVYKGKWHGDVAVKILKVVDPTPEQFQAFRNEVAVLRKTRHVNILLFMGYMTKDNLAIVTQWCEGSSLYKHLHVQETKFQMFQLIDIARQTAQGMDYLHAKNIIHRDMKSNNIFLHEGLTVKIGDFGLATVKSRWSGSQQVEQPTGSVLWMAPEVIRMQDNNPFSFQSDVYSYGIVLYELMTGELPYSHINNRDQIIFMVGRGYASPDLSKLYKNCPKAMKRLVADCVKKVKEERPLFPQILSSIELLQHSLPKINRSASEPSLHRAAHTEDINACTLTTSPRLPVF
Protocol: as §1

In the case of `O=C1NC(=O)C2=C1c1cn(c3ccccc13)CCCc1ccc(c(N3CCCC3)n1)CCCn1cc2c2ccccc21` [Cpd 7, 31-pyrrolidin-1-yl-5,15,25,30-tetraazaheptacyclo[27.2.2.1^5,12.1^18,25.0^6,11.0^13,17.0^19,24]pentatriaconta-1(31),6,8,10,12(35),13(17),18(34),19,21,23,29,32-dodecaene-14,16-dione], the “Activity at Protein Kinase Assays (% of control), AMPK(r)” value [1] is reported as 99 % of control, the “Activity at Protein Kinase Assays (% of control), CaMKII(r)” value [2] is reported as 98 % of control and the “Activity at Protein Kinase Assays (% of control), CK1(y)” value [3] is reported as 98 % of control. The “Activity at Protein Kinase Assays (% of control), p70S6K(h)” value [4] was 84 % of control, the “Activity at Protein Kinase Assays (% of control), Arg(m)” value [5] was 130 % of control and the “Activity at Protein Kinase Assays (% of control), CDK2/cyclinA(h)” value [6] was 88 % of control. The “Activity at Protein Kinase Assays (% of control), CDK5/p35(h)” value [7] was 104 % of control, the “Activity at Protein Kinase Assays (% of control), CHK1(h)” value [8] was 106 % of control and the “Activity at Protein Kinase Assays (% of control), CK1δ(h)” value [9] was 109 % of control. The “Activity at Protein Kinase Assays (% of control), CK2(h)” value [10] was 113 % of control, the “Activity at Protein Kinase Assays (% of control), CSK(h)” value [11] was 129 % of control and the “Activity at Protein Kinase Assays (% of control), Fes(h)” value [12] was 130 % of control. For the same compound, the “Activity at Protein Kinase Assays (% of control), IKKβ(h)” value [13] was 130 % of control, the “Activity at Protein Kinase Assays (% of control), MAPK2(m)” value [14] was 99 % of control and the “Activity at Protein Kinase Assays (% of control), PRAK(h)” value [15] was 102 % of control. For the same compound, the “Activity at Protein Kinase Assays (% of control), ROCK-II(h)” value [16] was 104 % of control, the “Activity at Protein Kinase Assays (% of control), Rsk1(r)” value [17] was 67 % of control and the “Activity at Protein Kinase Assays (% of control), SAPK2a(h)” value [18] was 93 % of control. The “Activity at Protein Kinase Assays (% of control), c-RAF(h)” value [19] was 85 % of control.
